Values of other authors in patent publication US8080647B2 (priority 2006, dated 2011).

Tests used:
lac repressor = lac repressor (Escherichia coli, UniProt P03023)
[1] = test system: lac operator-repressor system; conditions: Ulmasov et al. 1997

Molecule: CC(C)S[C@@H]1O[C@H](CO)[C@H](O)[C@H](O)[C@H]1O [IPTG, isopropyl-B-D-thiogalactopyranoside]
- toxicity of the inducing agent (cells): cytotoxic
- reduction of the affinity of lac repressor for the operator (lac repressor): 300 fold

B1: lactose repressor: repressor protein of the E. coli lactose operon (protein, UniProt P03023 1-360, looked up)
Lactose operon repressor: MKPVTLYDVAEYAGVSYQTVSRVVNQASHVSAKTREKVEAAMAELNYIPNRVAQQLAGKQSLLIGVATSSLALHAPSQIVAAIKSRADQLGASVVVSMVERSGVEACKAAVHNLLAQRVSGLIINYPLDDQDAIAVEAACTNVPALFLDVSDQTPINSIIFSHEDGTRLGVEHLVALGHQQIALLAGPLSSVSARLRLAGWHKYLTRNQIQPIAEREGDWSAMSGFQQTMQMLNEGIVPTAMLVANDQMALGAMRAITESGLRVGADISVVGYDDTEDSSCYIPPLTTIKQDFRLLGQTSVDRLLQLSQGQAVKGNQLLPVSLVKRKTTLAPNTQTASPRALADSLMQLARQVSRLESGQ
- repression reported [1]: 30 fold
